Source: US20040259096A1, “Receptor capture assay” (priority 2001, published 2004)

How the values were obtained:
Ah receptor = assay: Receptor capture assay employing ARNT-GST fusion protein, anti-GST plate, PCR and gel densitometry; type: biochemical, murine; settings: B-naphthoflavone 10 μM; duplicate samples; 30 cycles PCR; DMSO control 363
Description: The receptor was activated in the presence of ARNT/GST binding partner and test sample. Sufficient ARNT/GST was added to displace the endogenous ARNT present in the Ah receptor preparation. In a tube, 98 μl Hepa1c1c7 (0.8 mg) extract was incubated with 1 μl GST-ARNT (50 ng) and 1 μl sample (e.g. BNF or vehicle alone) at 30° C. for 1 hour. Non-specific binding of the nucleic acid-tracer was reduced by preincubating the reaction mix with NaCl to 60 mM and 2 μg salmon sperm DNA for 15 min. at room temperature. Nucleic acid-tracer was added to 50 fmol and the reaction was incubated 20 min at room temperature. The complex was captured on a commercially available 96-well anti-GST plate (Perkin Elmer Life Sciences, Boston, Mass.). The anti-GST coated microtiter plate was washed once with Wallac Wash Buffer prior to addition of 50 μl receptor-DNA reaction. […]
Samples were analyzed by agarose gel electrophoresis with visualization of ethidium-bromide stained DNA bands under UV radiation Typically, 20 μl of each sample was analyzed in the 4% gels, yielding bright fluorescent bands from the positive controls. […] Negatives were scanned using an HPscanjet 2200c and DNA bands were quantified using ScionImage (Scion Corporation) software.
Duplicate samples were analyzed with the protocol described above with B-naphthoflavone (10 μM) or vehicle (DMSO) following 30 cycles PCR. […]

AhR = target: T1, AhR (Cavia porcellus, UniProt Q6J287); assay: Receptor capture assay, real-time PCR, AhR derived from guinea pig; type: biochemical; parameters: The cytosol containing AhR heteromers was stored at; from tissue; host or cells: liver cytosol of Hartley guinea pigs
T1 sequence (Q6J287 1-846): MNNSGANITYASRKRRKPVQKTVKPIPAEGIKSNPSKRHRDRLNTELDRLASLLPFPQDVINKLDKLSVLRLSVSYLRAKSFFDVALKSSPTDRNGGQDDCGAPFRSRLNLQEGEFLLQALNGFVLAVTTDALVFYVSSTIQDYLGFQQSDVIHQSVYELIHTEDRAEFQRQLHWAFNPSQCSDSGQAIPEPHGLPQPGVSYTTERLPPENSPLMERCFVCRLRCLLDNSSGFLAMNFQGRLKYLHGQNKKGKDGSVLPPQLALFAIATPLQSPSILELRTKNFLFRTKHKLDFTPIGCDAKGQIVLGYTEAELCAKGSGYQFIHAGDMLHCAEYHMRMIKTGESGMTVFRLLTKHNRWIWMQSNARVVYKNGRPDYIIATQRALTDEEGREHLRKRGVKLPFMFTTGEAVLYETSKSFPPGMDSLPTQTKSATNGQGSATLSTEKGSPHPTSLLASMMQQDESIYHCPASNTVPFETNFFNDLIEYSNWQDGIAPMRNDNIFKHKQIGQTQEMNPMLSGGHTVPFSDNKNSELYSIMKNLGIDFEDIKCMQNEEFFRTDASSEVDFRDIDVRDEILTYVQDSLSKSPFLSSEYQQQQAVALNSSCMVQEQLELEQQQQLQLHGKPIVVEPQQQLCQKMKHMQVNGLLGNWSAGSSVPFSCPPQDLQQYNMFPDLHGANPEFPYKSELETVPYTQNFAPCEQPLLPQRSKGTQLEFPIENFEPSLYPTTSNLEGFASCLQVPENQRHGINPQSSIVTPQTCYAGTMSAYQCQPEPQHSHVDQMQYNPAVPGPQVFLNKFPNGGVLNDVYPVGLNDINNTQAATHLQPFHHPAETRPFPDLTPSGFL
Description: A set of calibrators consisting of 5000, 2500, 1250, 626, 313, 156, and 78 parts per trillion (ppt or pg/ml) 2,3,7,8-tetrachlorodibenzo-p-dioxin (TCDD) was prepared in methanol. In addition to TCDD a set of calibrators for AhR agonist, beta-naphthoflavone (BNF) was prepared and analyzed in the assay. Separately, 25 ul of 1:50,000 dilution of 10 uM stock nucleic acid-tracer was added per 1 ml of rodent cytosol, which was the source of AhR, and was aliquoted into glass tubes. The standards were diluted 1:20 into 50-100 ul of rodent cytosol, and incubated for 1-2 hr at room temperature to 37° C. Following incubation, 40 to 100 ul of the reaction was transferred to each well of the antibody-coated Capture Strip and incubated on a shaking platform for 30 min to 1 hr at room temperature. The Capture Strips were washed 5 times with Wash Buffer B, and aspirated; optionally soaking wells for 30 sec-5 min with wash buffer during each cycle. Taqman® Universal PCR Master Mix, primers, and Taqman® probe (Applied Biosystems, Calif.) were added, and adhesive cover applied. PCR was performed and analyzed using an ABI PRISM® 7700, using default settings: 50° C., 2 min, 95° C. […] A threshold cycle (Ct) was determined for each reaction The Ct represents the PCR cycle at which an increase in reporter fluorescence above baseline signal can first be detected.

Structure (SMILES) | average value of quantified DNA bands (Ah receptor) | slope of dose-response curve (AhR) | EC50 of dose-response curve (AhR; pg of TCDD in the assay) [pg]
O=c1cc(-c2ccccc2)oc2ccc3ccccc3c12 [BNF, beta-naphthoflavone] | 3013 |  | 
Clc1cc2c(cc1Cl)Oc1cc(Cl)c(Cl)cc1O2 [TCDD, 2,3,7,8-tetrachlorodibenzo-p-dioxin] |  | −1.042 | 2.6
